Test results reported in patent publication US20220162610A1, “NOVEL RNA TRANSCRIPT” (PTC Therapeutics, Inc., priority 2020, published 2022).

Experiments:
[1] = Unbound brain partition coefficient (Kp,uu) from mouse PK studies; assay type: in vivo; details: FVB (WT littermates of the BACHD colony), brain and plasma (unbound), oral, 10 mg/kg, average over animals of multiple mouse PK studies
Description: Oral pharmacokinetics (PK) of compounds was evaluated in WT littermates from the BACHD colony (FVB background). Mice were treated with test compounds (10 mg/kg) by oral gavage in 0.5% hydroxypropylmethyl cellulose (HPMC) with 0.1% Tween 80. Blood was collected by terminal cardiac puncture at specified time points (3 mice per time point) and centrifuged to generate plasma. Brain tissue was collected at the time of blood collection and homogenized in water. Protein was precipitated from plasma and brain homogenates with acetonitrile, methanol mixture (5:1, v:v) containing an internal standard that is a close analog of the test compounds. The mixture was filtered through an EMD Millipore MultiScreen™ Solvinert Filter Plate (MSRLN04, Millipore, Burlington, Mass.). Calibration standards were prepared in the same matrix and processed with the testing samples. Filtrates were analysed using Acquity ultra performance liquid chromatography (UPLC) system (Waters Corporation) tandem with Xevo TQ-s Spectrometer (Waters Corporation). Samples were injected on to a Waters UPLC Acquity BEH C18 Column (2.1*50 mm, 1.7 μm) maintained at 50° C. The injection volume was 3 μL and the mobile phase flow rate was 0.45 mL/min. The mobile phase consisted of 2 solvents: A) 0.1% formic acid in water and B) 0.1% formic acid in acetonitrile. The initial mobile phase started with 5% solvent B for 0.4 min, which was changed to […] over 0.8 min with linear gradients and then maintained at 95% solvent B for another 0.4 min. The drug concentrations were acquired and processed with MassLynx 4.1 software. PK parameters were estimated using the non-compartment method within Phoenix® WinNonlin® Build 8.1 (Certara USA, Inc., Princeton, N.J.).
The unbound brain partition coefficient (Kp,uu) is defined as the ratio between unbound brain free drug concentration and unbound plasma concentration. It was calculated using the following equation:
Kp,uu=Cbrain×fu,b/(Cplasma*fu,p)
Cbrain and Cplasma represent the compound concentrations in brain and plasma, respectively. fu,b and fu,p are the unbound fraction of each testing article in brain and plasma, respectively. Both fu,b and fu,p were determined in vitro using Pierce Rapid Equilibrium Dialysis (RED) device at Absorption System LLC (Exton, Pa.). Kp,uu was calculated individually for each animal from multiple mouse PK studies and the average values are reported here.

HTT pre-mRNA = test: Ampliseq/RNAseq analysis of intron 49 pseudoexon inclusion and HTT expression in different cell types; assay type: cell-based, human
MDR1 = biological target: T1, MDR1 (Homo sapiens, UniProt P08183); test: MDCK-MDR1 efflux assay; assay type: in vitro ADME; details: 10 μM, MDCK-MDR1 and MDCK-WT monolayers, 1 hour
T1 construct: host or cells: MDCK (Madin-Darby Canine Kidney) cells expressing MDR1
T1 sequence (P08183 whole entry): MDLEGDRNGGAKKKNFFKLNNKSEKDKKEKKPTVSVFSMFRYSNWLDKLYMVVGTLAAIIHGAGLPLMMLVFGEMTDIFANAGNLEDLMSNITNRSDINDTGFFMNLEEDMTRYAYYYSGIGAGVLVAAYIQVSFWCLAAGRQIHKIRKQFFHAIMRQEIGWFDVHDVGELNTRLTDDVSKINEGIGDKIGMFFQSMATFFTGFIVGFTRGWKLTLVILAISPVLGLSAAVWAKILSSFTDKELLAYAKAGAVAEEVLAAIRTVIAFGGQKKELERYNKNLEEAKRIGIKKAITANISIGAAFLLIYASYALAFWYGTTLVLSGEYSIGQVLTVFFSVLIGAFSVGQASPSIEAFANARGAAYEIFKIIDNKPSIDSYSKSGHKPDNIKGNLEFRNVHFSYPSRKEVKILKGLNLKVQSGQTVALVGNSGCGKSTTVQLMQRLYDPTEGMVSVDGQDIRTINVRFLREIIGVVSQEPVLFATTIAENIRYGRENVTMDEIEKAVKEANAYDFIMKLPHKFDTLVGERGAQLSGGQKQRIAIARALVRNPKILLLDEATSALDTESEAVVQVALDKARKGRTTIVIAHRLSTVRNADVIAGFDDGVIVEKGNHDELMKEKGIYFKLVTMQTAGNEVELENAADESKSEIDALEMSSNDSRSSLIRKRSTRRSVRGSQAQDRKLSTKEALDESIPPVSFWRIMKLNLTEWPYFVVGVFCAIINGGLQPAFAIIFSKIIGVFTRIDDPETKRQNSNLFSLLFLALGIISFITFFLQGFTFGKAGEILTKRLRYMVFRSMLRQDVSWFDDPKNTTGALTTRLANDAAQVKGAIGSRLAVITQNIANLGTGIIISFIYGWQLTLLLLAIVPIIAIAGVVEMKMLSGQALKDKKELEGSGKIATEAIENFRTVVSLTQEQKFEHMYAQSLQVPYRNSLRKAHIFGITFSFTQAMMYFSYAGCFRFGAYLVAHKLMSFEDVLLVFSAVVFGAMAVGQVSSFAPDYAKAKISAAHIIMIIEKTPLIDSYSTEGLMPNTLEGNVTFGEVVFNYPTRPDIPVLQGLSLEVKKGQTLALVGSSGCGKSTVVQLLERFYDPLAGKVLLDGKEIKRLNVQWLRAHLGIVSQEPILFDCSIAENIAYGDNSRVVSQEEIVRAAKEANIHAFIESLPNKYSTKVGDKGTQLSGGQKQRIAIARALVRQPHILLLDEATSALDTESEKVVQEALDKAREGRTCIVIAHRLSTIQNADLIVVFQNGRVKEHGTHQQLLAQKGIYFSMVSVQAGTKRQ
Description: The MDR1 efflux assay was conducted at Absorption System LLC (Exton, Pa.). Briefly, MDCK-MDR1 and MDCK-WT cell monolayers were grown to confluence on collagen-coated, microporous membranes in 12-well assay plates (Thermofisher). Compound solutions (10 μM) in permeability assay buffer (Hanks' balanced salt solution (HBSS), 10 mM HEPES, 15 mM glucose; pH of 7.4) were placed in the donor chamber. The receiver chamber was filled with assay buffer plus 1% BSA. Cell monolayers were dosed on the apical side (A-to-B) or basolateral side (B-to-A) and incubated at 37° C. (5% CO2, 100% relative humidity). Sampling from the donor chambers was performed at 0 and 1 hour; and from the receiver chambers at 1 hour. Each determination was performed in duplicate. The flux of lucifer yellow was also measured post-experimentally for each monolayer to ensure no damage was inflicted to the cell monolayers during the flux period. All samples were assayed by LC-MS/MS using electrospray ionisation. The apparent permeability (Papp) and percent recovery was determined using the following equation: […]
dCr/dt represents the slope of the cumulative receiver concentration versus time in μM/s; Vr is the volume of the receiver compartment (cm3); Vd is the volume of the donor compartment in (cm3); A is the area of the insert (1.13 cm2 for 12-well); C0 is the average measured concentration of the donor chamber at time zero in μM; Net Efflux ratio (ER) is defined as […].

HTT protein = HTT protein electrochemiluminescence (ECL) assay in HD patient fibroblasts, 96 h; assay type: cell-based, human; details: fibroblasts derived from HD patients, 96 h
Description: Human fibroblasts derived from a homozygous patient with HD (GM4857) were cultured for 96 hours in the presence of test compounds (in 0.5% DMSO) or controls at 37° C. in a humidified 5% CO2 atmosphere. After 96 hours, cells were lysed and frozen. HTT protein levels were measured in lysates as described below. Compounds that decreased HTT protein levels relative to DMSO control were further tested in a dose response assay.
For analysis in the electrochemiluminescence (ECL) assays, test compounds were serially diluted 3-fold in 100% DMSO (Sigma) to generate a 7-point concentration curve. A solution of test compound (500 nL, 200× in DMSO) was added to each test well with Acoustic Transfer System (EDC Biosystems); final concentration of DMSO was 0.5%. Fibroblasts were seeded in 96-well flat-bottomed plates (Thermo Fisher) at 4×10^3 cells/well in 100 μl of culture medium containing the test compound or DMSO vehicle control and incubated for 96 hours (37° C., 5% CO2, 100% relative humidity). After removal of the supernatant, cells were lysed in 50 μL of 1×LB11 extraction buffer (50 mM Tris (pH 7.4), 300 mM NaCl, 10% [w/v] glycerol, 3 mM EDTA, 1 mM MgCl2, 20 mM glycerophosphate, 25 mM NaF, 1% Triton X-100), containing a Complete™ protease inhibitor cocktail (Roche Diagnostics) with shaking at 4° C. for 30 minutes; the plates were then stored at −20° C.
Meso Scale Discovery® 96-well plates (MSD®) were coated overnight at 4° C. with primary antibodies in phosphate-buffered saline (PBS; 30 μl/well). The plates were washed three times with 0.05% Tween-20 in 1×PBS (PBS-T; 200 μl/well) then blocked (100 μl/well; 5% bovine serum albumin [BSA] in PBS-T) for 5-6 hours at room temperature (RT) with shaking. Plates were then washed three times with PBS-T. Cell lysates were transferred to the antibody coated plates (25 μl/well) and incubated with shaking overnight at 4° C. After removal of the lysates, the plates were washed three times with PBS-T, and 25 μl of detection antibody in 1% BSA, PBS-T was added to each well and incubated with shaking for 1 hour at room temperature. After three washes with PBS-T, 25 μl of Sulfo-Tag secondary antibody (MSD®; 0.25 μg/ml in 1% BSA, PBS-T) was added to each well and incubated with shaking for 1 hour at RT. After washing three times with PBS-T, 150 μl of read buffer T with surfactant (MSD®) was added to each empty well and the plate was imaged on the SI 6000 imager (MSD®) according to manufacturers' instructions for 96-well plates. Primary capture antibodies included: anti-polyglutamine-expanded HTT mouse monoclonal antibody (mAb) clone MW1 (1 μg/mL; Developmental Studies Hybridoma Bank); anti-HTT MAB2166 mAb (1 μg/mL; Millipore); anti-human KRAS rabbit polyclonal antibody (1 μg/mL; Thermo Fisher Scientific). Detection antibodies included: Huntingtin (D7F7) XP® Rabbit mAb (0.25 μg/ml; Cell Signalling Technology®); anti-hKRAS mouse mAb (0.25 μg/ml; LSBIO).

In the case of `CC1(C)CC(n2nnc3cc(-c4ccc(-n5nccn5)cc4O)nnc32)CC(C)(C)N1` [HTT-C3], the Kp uu [1] is reported as 0.848, the “HTT gene expression quantified using RNAseq (FPKM)” value (HTT pre-mRNA; 100 nM, SHSY5Y cells (HTT-C2), TK6 cells (HTT-C3)) is reported as “reduced HTT gene expression” and the “inclusion of intron 49 pseudoexon” value (HTT pre-mRNA; HD fibroblasts, SH-SY5Y, TK6, MRC-5 cells) is reported as “induced the inclusion of an Intron 49 pseudoexon”. The “NET MDR1 ER” value (MDR1) was 2.0.

With `Cn1c(/C=C/c2ccc(Cl)cc2)c([N+](=O)[O-])c(=O)n(C)c1=O` [HTT-B] the HTT protein level (HTT protein) was “lower HTT protein levels”.

With `CC(C)c1cc(-c2n[nH]cc2-c2ccc3c(c2)OCO3)c(O)cc1O` [HTT-A] the HTT protein level (HTT protein) was “lower HTT protein levels”.
